Literature values as cited in patent publication EP2517696A1, “Extended release memantine tablet” (Ali Raif Ilaç Sanayi ve Ticaret Anonim Sirketi, priority 2011, dated 2012).
Structures can show the parent of a compound that is named as a salt.

What was measured:
[1] = high dissolution and permeability
[2] = in vivo

With `CC12CC3CC(C)(C1)CC(N)(C3)C2` [Memantine HCl, 3,5 dimethyl-1-adamantamine hydrochloride] as the compound, how does the BCS class [1] read?
The BCS class was “BCS 1 class”.

What about the absolute bioavailability [2] of the same compound?
Its absolute bioavailability is 100%.
